Here are results for two compounds from patent US20220024921A1, “1,3,4-OXADIAZOLONE COMPOUND AND PHARMACEUTICAL” (NIPPON SHINYAKU CO., LTD., priority 2018, published 2022).

Assay [1] deals with T1, PIM2 serine/threonine kinase (Homo sapiens, UniProt Q9P1W9).
T1 construct: purchased Carna Bioscience, Inc
The experiment in a line: PIM2 serine/threonine kinase inhibitory effect. It is filed as biochemical. The settings on record: PIM2 serine/threonine kinase activity; ATP 2 μM; 30° C., 30 minutes. As to the method: (§1) Each test substance was prepared to 10 mM with dimethylsulfoxide (DMSO), and further diluted with DMSO so as to have concentrations of 1000, 300, 100, 30, 10, 3, 1, 0.3, 0.1, 0.03, 0.01, and 0.001 μM. Moreover, each dilution was further diluted 33.3-fold with an assay buffer to prepare a test substance solution. The composition of the assay buffer was 50 mM HEPES (pH 7.0), 0.02% NaN3, 0.01% Bovine Serum Albumin, 0.1 mM Orthovanadate, 1 mM Dithiothreitol, and 5 mM MgCl2.
(§2) 5 μL of each test substance solution was added to 384-well plates (n=2), and then 2.5 μL of a substrate solution (substrate 3-biotin (Cisbio Bioassays SAS), final concentration in the reaction solution: 0.5 μM) and 2.5 μL of an ATP solution (in the cases of PIM1, 2, 3, the final concentrations in the reaction solutions were 40, 2, and 10 μM, respectively) were added, 5 μL of each of PIM1, 2, 3 serine/threonine kinase solutions (Carna Bioscience, Inc., the final concentrations in the reaction solutions were 0.15, 1.6, and 0.25 μg/ml, respectively) was finally added, and the mixture was reacted at 30° C. for 30 minutes. The test substance concentrations in the reaction solutions are 10000, 3000, 1000, 300, 100, 30, 10, 3, 1, 0.3, 0.1, and 0.01 nM.
(§3) Thereafter, 15 μL of each detection solution (62.5 nM Streptavidin-XL665 (Cisbio Bioassays SAS), […] STK antibody-Cryptate (Cisbio Bioassays SAS), 50 mM HEPES (pH 7.0), 0.8 M KF, 0.1% Bovine Serum Albumin, 20 mM ethylenediaminetetraacetic acid) was added to each well. After stirring, the mixture was reacted at 30° C. for 1 hour. Absorbance (OD620, OD665) at 620 and 665 nm was measured with a microplate reader (SpectraMax M5e, Molecular Devices, LLC).
(§4) Non-linear regression analysis was performed by an SAS system (SAS Institute Inc.) using the ratio (OD665/OD620) of the measured absorbance to calculate a test substance concentration (IC50) that inhibits PIM1 serine/threonine kinase activity by 50%.
(§5) For the compounds with the following Example numbers, in addition to the above PIM1 serine/threonine kinase activity (IC50), test substance concentrations (IC50) that inhibit PIM2 serine/threonine kinase activity and PIM3 serine/threonine kinase activity by 50% were calculated.

For assay [2], the target named is T2, PIM3 serine/threonine kinase (Homo sapiens, UniProt Q86V86).
T2 construct: purchased Carna Bioscience, Inc
The experiment in a line: PIM3 serine/threonine kinase inhibitory effect. The settings on record: PIM3 serine/threonine kinase activity; ATP 10 μM; 30° C., 30 minutes. It is filed as biochemical. As to the method:
as §1, §2, §3, §4, §5

A further assay concerns NZB/W F1 mice. The experiment in a line: Inhibitory effect on systemic lupus erythematosus and lupus nephritis model animals. The assay is classed as in vivo. As to conditions: for survival rate / onset rate of proteinuria / anti-double-stranded DNA antibody titer: NZB/W F1 mice, 15, 30 mg per 1 kg twice a day for 15 weeks; for onset rate of proteinuria: UACR>20 = proteinuria-positive; for anti-double-stranded DNA antibody titer / Anti-double-stranded DNA antibody titer (U/mL): plasma, final day of administration; for Number of proteinuria-positive individuals: UACR>20 defined as positive; for Anti-double-stranded DNA antibody titer (U/mL): median of group; for Number of dead/euthanized individuals: until the final day of administration. The source says:
For the evaluation of test substances, NZB/W F1 mice (29, 30-week-aged female), which are model mice with systemic lupus erythematosus and lupus nephritis, were used. These mice are a spontaneous animal model, and an increase in autoantibodies such as anti-double-stranded DNA antibody, which is considered to be a cause of systemic lupus erythematosus, and proteinuria, which is a characteristic of lupus nephritis, are observed for the mice, and the mice are known to die from nephritis.
Urine was collected before the start of the test, and individuals with a urinary albumin concentration÷urinary creatinine concentration (UACR) value of 5 or more were excluded. Furthermore, the anti-double-stranded DNA antibody titer in blood and the body weight were measured before the start of the test, and 53 mice were grouped into 5 groups of 10 or 13 mice based on blood anti-double-stranded DNA antibody titer, age, and body weight. Since early death was expected for the vehicle-administered group, the test was conducted with 13 mice as this group.
Example 75 and Example 202 were used as test substances, and a 0.5% methyl cellulose solution which is a vehicle was used as a control. Example 75 and Example 202 were prepared into solutions of 1.5 and 3.0 mg/mL by being dissolved in a 0.5% methyl cellulose solution.
After grouping, the 0.5% methyl cellulose solution or the 1.5 or 3.0 mg/mL solution of Example 75 or Example 202 was administered to each of the mice of the 7 groups. The single dose was set to 10 mL per 1 kg of body weight, and the dose was administered twice a day. Under these conditions, the dose per time is 15, 30 mg per 1 kg of body weight. Administration was started on 29 or 30-week-aged mice, and was performed daily for 15 weeks until the age of 44 or 45 weeks.
Blood was collected from the tail vein of each of all the surviving individuals on the final day of administration. Then, the blood was centrifuged and the plasma was separated and taken. The plasma was diluted 3000-fold, and the anti-double-stranded DNA antibody titer was measured by ELISA method (Levis anti-dsDNA-mouse ELISA Kit, FUJIFILM Wako Shibayagi Corporation). Measurement and analysis were performed according to the protocol of the Kit.
All the surviving individuals on the final day of administration were bred in a mouse metabolism cage (CLEA Japan, Inc.) for 16 hours, and urine was collected from each individual. The solids were removed by centrifuging the urine and collecting the supernatant. An automatic analyzer (JCA-BM6050 BioMajesty, JEOL Ltd.) was used to measure the albumin concentration and creatinine concentration in urine after centrifugation. A urinary albumin/creatinine ratio (UACR) was calculated by dividing the albumin concentration by the creatinine concentration, and individuals with UACR>20 were defined as proteinuria-positive individuals. In addition, for almost all the individuals that died before the final day of administration, UACR>20 was confirmed in urinalysis immediately before death, and thus these individuals were treated as proteinuria-positive individuals.

Where [3] appears, read: single dose 15 mg/kg twice a day for 15 weeks.
Setting [4] is: single dose 30 mg/kg twice a day for 15 weeks.

T1 sequence (Q9P1W9 whole entry): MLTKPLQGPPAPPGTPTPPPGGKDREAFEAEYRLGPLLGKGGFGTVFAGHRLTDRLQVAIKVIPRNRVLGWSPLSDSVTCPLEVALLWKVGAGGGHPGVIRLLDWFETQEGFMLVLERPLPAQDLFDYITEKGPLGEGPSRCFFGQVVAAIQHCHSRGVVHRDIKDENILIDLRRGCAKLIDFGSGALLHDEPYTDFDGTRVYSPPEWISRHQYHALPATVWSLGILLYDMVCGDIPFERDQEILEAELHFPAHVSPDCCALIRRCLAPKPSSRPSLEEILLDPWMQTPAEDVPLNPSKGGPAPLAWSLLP

In general, IC50 refers to the concentration that inhibits the measured activity by half. Regarding `C[C@H](Nc1cc(-c2n[nH]c(=O)o2)cc(F)c1C(F)(F)F)C1CCNCC1.Cl` [Example 75, 5-[3-fluoro-5-{[(1S)-1-(piperidin-4-yl)ethyl]amino}-4-(trifluoromethyl)phenyl]-1,3,4-oxadiazol-2(3H)-one hydrochloride], the midpoint of inhibition in assay [1], the IC50, lay at 2.3 nM. In assay [2], this compound came in with an IC50 of 10 nM. Further, in the assay with NZB/W F1 mice, the survival rate entry is given as “improving the survival rate”, the “onset rate of proteinuria” value was “decreasing the onset rate of proteinuria” and the “anti-double-stranded DNA antibody titer” value is “suppressing an increase in anti-double-stranded DNA antibody titer”. Also, in the assay with NZB/W F1 mice (setting [3]), the “Number of proteinuria-positive individuals” value is 2/10, the “Anti-double-stranded DNA antibody titer (U/mL)” value came out at 423 U/mL and the “Number of dead/euthanized individuals” value was 0/10. Besides, in the assay on NZB/W F1 mice (setting [4]), the “Number of proteinuria-positive individuals” value is 0/10, the “Anti-double-stranded DNA antibody titer (U/mL)” value came to 306 U/mL and the “Number of dead/euthanized individuals” value is reported as 0/10.
For `C[C@H](Nc1cc(-c2n[nH]c(=O)o2)cc(F)c1OC(F)(F)F)C1CCNCC1.Cl` [Example 202, 5-[3-fluoro-5-{[(1S)-1-(piperidin-4-yl)ethyl]amino}-4-(trifluoromethoxy)phenyl]-1,3,4-oxadiazol-2(3H)-one hydrochloride], in the assay on NZB/W F1 mice, the survival rate entry is recorded as “improving the survival rate”, the “onset rate of proteinuria” value is recorded as “decreasing the onset rate of proteinuria” and the “anti-double-stranded DNA antibody titer” value is “suppressing an increase in anti-double-stranded DNA antibody titer”. Further, in the assay with NZB/W F1 mice (setting [3]), the “Number of proteinuria-positive individuals” value is 1/10, the “Anti-double-stranded DNA antibody titer (U/mL)” value is 568 U/mL and the “Number of dead/euthanized individuals” value is reported as 1/10. In addition, in the assay with NZB/W F1 mice (setting [4]), the “Number of proteinuria-positive individuals” value is 1/10, the “Anti-double-stranded DNA antibody titer (U/mL)” value was 112 U/mL and the “Number of dead/euthanized individuals” value is reported as 1/10.
